From patent US20200345733A1, “Microbicidal Pyrimidine or Triazine Containing Compounds” (Janssen Sciences Ireland UC, priority 2002, published 2020)

Assay: White rabbit vaginal irritation and toxicity study (10 days)
Type: in vivo
Details: female rabbits, 10 days after application; animals with finding
Protocol: Gel formulations of the compound B at different concentrations were used to study the exclusion of any irritation in a Rabbit Vaingal Irritation test. 10 days after the application of the gel formulations onto 6 different rabbit groups, vaginal and cervical epithelium were carefully examined by a pathologist macroscopically and histologically. The following scores were determined.

Nonoxynol-9 [Nonoxynol-9, 4%]
Cervical examination: Epithelial loss and atrophy, Marked: 3
Cervical examination: Epithelial loss and atrophy, Slight: 1
Cervical examination: Epithelial loss and atrophy, Total: 4a
Cervical examination: Luminal Inflammatory cells, Present: 4
Cervical examination: Luminal Inflammatory cells, Total: 4a
Vaginal examination: Epithelial inflammatory infiltrate, Minimal: 3
Vaginal examination: Epithelial inflammatory infiltrate, Slight: 2
Vaginal examination: Epithelial inflammatory infiltrate, Total: 5a
Vaginal examination: Epithelial loss and atrophy, Marked: 2
Vaginal examination: Epithelial loss and atrophy, Severe: 3
Vaginal examination: Epithelial loss and atrophy, Total: 5b
